Here are results for seven compounds from ChEMBL document CHEMBL1201862, “PubChem BioAssay data set” (2004).

Test systems include 786-0; BT-549; CAKI-1; DU-145; HL-60; HT-29; KM12; MCF7; MDA-MB-435; NCI/ADR-RES; OVCAR-4; RPMI-8226; RXF 393; SF-268; SK-OV-3; SN12C; SW-620; T47D; U-251; UO-31.
Holding throughout (test): NCI anticancer screen, dose series, 48 h

Each structure is given as a SMILES string.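 Test compounds were applied to cells in 96-well plates for 48 hours at 5 doses. GI50 is the concentration that inhibits growth by half.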 Activity calls are given as the source filed them. Cut-off read from the data, not from the text of the source: active = GI50 up to about 1.1 µM and inactive = higher. Where a SMILES comes first, the peptide text is derived from it. The star is where a group is joined. Boc = CC(C)(C)OC(=O)*

As to `CN(C)CCCn1c2ccccc2c2cnccc21`, the GI50 with 786-0 is 27.7 µM (inactive); in the experiment with BT-549, 80.4 µM (inactive); with CAKI-1 it was 38.7 µM (inactive); in the experiment with DU-145, 43.9 µM (inactive); in the experiment on HL-60, 23.6 µM (inactive); in the experiment on HT-29 it was 25.1 µM (inactive). Further, the GI50 in the experiment on KM12 was 43.2 µM (inactive); in the experiment with MCF7, 35.2 µM (inactive); in the experiment on MDA-MB-435, 28.3 µM (inactive); in the experiment on NCI/ADR-RES it was 36.1 µM (inactive); with OVCAR-4, 39.6 µM (inactive); in the experiment on RPMI-8226 it was 26.7 µM (inactive). Moreover, the GI50 was 57.4 µM (inactive) with RXF 393; 50.7 µM (inactive) in the experiment on SF-268; 66.2 µM (inactive) in the experiment with SK-OV-3; 17.1 µM (inactive) in the experiment on SN12C; 26.4 µM (inactive) in the experiment on SW-620; 70.8 µM (inactive) in the experiment on T47D. The GI50 with U-251 was 39.1 µM (inactive); in the experiment with UO-31, 17.5 µM (inactive).
For the compound `C[C@@]12C[C@@H](c3ccccc3O1)N1CCCSC1=N2`, the GI50 in the experiment on 786-0, in the experiment with BT-549, in the experiment with CAKI-1, with DU-145, in the experiment on HL-60 and in the experiment with HT-29 was > 100 µM (inactive) each time. Besides, the GI50 in the experiment on KM12, with MCF7, in the experiment on MDA-MB-435, in the experiment with NCI/ADR-RES, with OVCAR-4 and with RPMI-8226 was > 100 µM (inactive) throughout. Also, the GI50 in the experiment on RXF 393, in the experiment with SF-268, with SK-OV-3, in the experiment with SN12C, with SW-620 and with T47D was > 100 µM (inactive) in each case. Besides, the GI50 in the experiment on U-251 and in the experiment with UO-31 was > 100 µM (inactive) in each case.
Turning to `COc1cccc2cc(C(=O)Nc3ccccn3)c(=N)oc12`, the GI50 in the experiment with 786-0 was 95.1 µM (inactive); with BT-549, 78.2 µM (inactive); in the experiment on CAKI-1, > 100 µM (inactive); with DU-145 it was 54.8 µM (inactive); in the experiment on HL-60, 21.6 µM (inactive); in the experiment on HT-29, > 100 µM (inactive). Besides, the GI50 was 99.3 µM (inactive) in the experiment with KM12; 19.1 µM (inactive) with MCF7; 63.4 µM (inactive) in the experiment with MDA-MB-435; > 100 µM (inactive) in the experiment on NCI/ADR-RES; > 100 µM (inactive) in the experiment with OVCAR-4; 75.7 µM (inactive) in the experiment with RPMI-8226. Moreover, the GI50 in the experiment with RXF 393 was 49 µM (inactive); in the experiment with SF-268 it was 64.1 µM (inactive); in the experiment on SK-OV-3, 85.3 µM (inactive); in the experiment with SN12C it was > 100 µM (inactive); in the experiment on SW-620, > 100 µM (inactive); in the experiment with T47D, 33 µM (inactive). Further, the GI50 in the experiment on U-251 and in the experiment with UO-31 was > 100 µM (inactive) throughout.
For the compound `CC(C)(C)OC(=O)NCC(=O)NCC(=O)NCC(=O)NCC(=O)O` (Boc-GGGG-OH), the GI50 in the experiment with 786-0, in the experiment with BT-549, in the experiment on CAKI-1, in the experiment with DU-145, with HL-60 and in the experiment on HT-29 was > 100 µM (inactive) each time. Besides, the GI50 in the experiment with KM12, in the experiment with MCF7, in the experiment with MDA-MB-435, in the experiment on NCI/ADR-RES, in the experiment on OVCAR-4 and in the experiment on RPMI-8226 was > 100 µM (inactive) each time. The GI50 with RXF 393, in the experiment with SF-268, in the experiment on SK-OV-3, in the experiment on SN12C, with SW-620 and with T47D was > 100 µM (inactive) in each case. The GI50 with U-251 and in the experiment on UO-31 was > 100 µM (inactive) each time.
As for `CC(OCc1ccccc1)C(NC(=O)C1CSSCC(NC(=O)C(Cc2ccccc2)NC(=O)OCc2ccccc2)C(=O)NC(Cc2ccccc2)C(=O)NC(Cc2cn(C=O)c3ccccc23)C(=O)NC(CCCCNC(=O)OCc2ccccc2)C(=O)NC(C(C)OCc2ccccc2)C(=O)N1)C(N)=O` (stereo not given), the GI50 is 24.9 µM (inactive) with 786-0; 21.2 µM (inactive) in the experiment with BT-549; 46 µM (inactive) in the experiment on CAKI-1; 30.5 µM (inactive) in the experiment on DU-145; 0.977 µM (active) with HL-60; 6.04 µM (inactive) in the experiment on HT-29. In addition, the GI50 was 3.91 µM (inactive) in the experiment with KM12; 8.02 µM (inactive) with MCF7; 37.9 µM (inactive) with MDA-MB-435; > 100 µM (inactive) in the experiment with NCI/ADR-RES; > 43.5 µM (inactive) with OVCAR-4; 5.04 µM (inactive) in the experiment on RPMI-8226. Moreover, the GI50 in the experiment on RXF 393 was 97.1 µM (inactive); in the experiment on SF-268, > 61.8 µM (inactive); in the experiment on SK-OV-3 it was > 35.2 µM (inactive); in the experiment on SN12C, > 100 µM (inactive); in the experiment with SW-620, 13.4 µM (inactive); in the experiment on T47D, 13.3 µM (inactive). Further, the GI50 in the experiment with U-251 is 25.1 µM (inactive); with UO-31, 78.3 µM (inactive).
Take `NC(=O)N(O)c1cccc(Br)c1`: the GI50 with 786-0, in the experiment with BT-549, in the experiment on CAKI-1, in the experiment on DU-145, in the experiment on HL-60 and in the experiment with HT-29 was > 100 µM (inactive) throughout. In addition, the GI50 in the experiment with KM12, with MCF7, in the experiment with MDA-MB-435, with NCI/ADR-RES, in the experiment with OVCAR-4 and with RPMI-8226 was > 100 µM (inactive) in each case. The GI50 in the experiment on RXF 393, in the experiment with SF-268, with SK-OV-3, with SN12C, in the experiment with SW-620 and with T47D was > 100 µM (inactive) each time. Also, the GI50 in the experiment on U-251 and in the experiment with UO-31 was > 100 µM (inactive) in each case.
Regarding `Nc1ccc2c3[nH]c4cc(N)ccc4cc-3nc2c1`, the GI50 in the experiment on 786-0 was 0.121 µM (active); with BT-549 it was 0.984 µM (active); in the experiment with CAKI-1, 0.203 µM (active); in the experiment on DU-145, 0.318 µM (active); in the experiment on HL-60, 0.273 µM (active); in the experiment with HT-29 it was 0.145 µM (active). For the same compound, the GI50 in the experiment with KM12 is 0.167 µM (active); in the experiment on MCF7, 0.069 µM (active); in the experiment on MDA-MB-435 it was 0.136 µM (active); with NCI/ADR-RES, 0.243 µM (active); in the experiment with OVCAR-4 it was 0.283 µM (active); in the experiment on RPMI-8226 it was 0.414 µM (active). Further, the GI50 in the experiment on RXF 393 was 0.32 µM (active); with SF-268, 0.232 µM (active); with SK-OV-3 it was 0.314 µM (active); in the experiment with SN12C, 0.138 µM (active); in the experiment on SW-620 it was 0.0603 µM (active); in the experiment on T47D, 0.284 µM (active). Moreover, the GI50 with U-251 was 0.156 µM (active); in the experiment on UO-31, 0.0925 µM (active).
